From patent publication US12435062B2, “Amide compounds and uses thereof” (HUTCHISON MEDIPHARMA LIMITED, priority 2020, dated 2025)

These compounds were tested on Ba/F3^BCR-FMS-11 cells (assay: Cell proliferation experiment (Ba/F3^BCR-FMS-11, cckit-8)). Settings: Mus musculus, 72 h, Ba/F3^BCR-FMS-11 cell proliferation.
Assay type: cell-based, mouse
Experimental: Cell Proliferation Experiment
Ba/F3^BCR-FMS-11, mouse primary B lymphocytes stably expressing the BCR-FMS fusion gene. The cells were cultured in an RPMI 1640 medium containing 10% FBS.
2. Reagents and instruments
• cckit-8 kit: Dojindo, 9 CK04; • Envision: Perkin Elmer; • Cell culture plate: Facol, 9353027. 3. Experimental steps
The BCR-FMS fusion gene was transfected into Ba/F3 cells, and the cell line Ba/F3^BCR-FMS-11 that stably expresses BCR-FMS and grows depending on CSF-1R was screened. Ba/F3^BCR-FMS-11 cell proliferation experiments is completed by using the Cell Counting kit cckit-8 in a 96-well plate. In a 96-well plate, 5000/well of Ba/F3^BCR-FMS-11 cells were inoculated at 100 μL/well. […] 10 μL of the compound dilutions with the above 8 concentrations were added to the culture cell wells. The culture was incubated in a 37° C. and 5% CO2 cell incubator for 72 hours. 10 μL of Cell Counting kit cckit-8 detection reagent was added to each well, and incubated at 37° C. and 5% CO2 in a cell incubator for another 1 h. The optical density absorption value at 450 nm of each well was detected by using Perkin Elmer Envision instrument.
wherein • Drug-treated well read-out: indicating the optical density signal of a cell well with the test compound treatment. • Cell well read-out: indicating the optical density signal of a cell well not treated with the test compound (only 0.5% DMSO). • Background read-out: indicating the optical density signal of a well with the cell medium. 5. Calculation of IC50: obtained by using XL-Fit 5.3 software. 6. Test results
In the case of `Cc1ncc(C(=O)Nc2ccc(Oc3ccnc(-c4cnn(CCN(C)C)c4)c3)cn2)c(=O)n1C` [Compound 14], the IC50 is reported as 44 nM. `Cn1cc(-c2cc(Oc3ccc(NC(=O)c4cnc5ccccn5c4=O)nc3)ccn2)cn1` [Compound 26] was tested, and the IC50 was 10 nM. Work on `Cn1cc(-c2cc(Oc3ccc(NC(=O)c4cn(C)c(=O)n(C)c4=O)nc3)ccn2)cn1` [Compound 40] yielded an IC50 of 46 nM. `Cn1cc(-c2cc(Oc3ccc(NC(=O)c4cnc(C5CC5)n(C)c4=O)nc3)ccn2)cn1` [Compound 74] gave an IC50 of 12 nM. Work on `Cn1cc(-c2cc(Oc3ccc(NC(=O)c4cccn(CC(F)(F)F)c4=O)nc3)ccn2)cn1` [Compound 87] yielded an IC50 of 6 nM. `COc1cc(Oc2ccnc(-c3cnn(C)c3)c2)cnc1NC(=O)c1cccn(C(C)C)c1=O` [Compound 92, 1-isopropyl-N-(3-methoxy-5-((2-(1-methyl-1H-pyrazol-4-yl)pyridin-4-yl)oxy)pyridin-2-yl)-2-oxo-1,2-dihydropyridine-3-carboxamide] was tested, and the IC50 was 567 nM. In the case of `Cn1cccc(C(=O)Nc2ccc(Oc3ccnc(-c4cnn(CCO)c4)c3)cn2)c1=O` [Compound 94, N-(5-((2-(1-(2-hydroxyethyl)-1H-pyrazol-4-yl)pyridin-4-yl)oxy)pyridin-2-yl)-1-methyl-2-oxo-1,2-dihydropyridine-3-carboxamide], the IC50 is reported as 142 nM.

Same assay, conditions: Mus musculus, Ba/F3^BCR-FMS-11 cell proliferation, 72 hours
Work on `CN(C)c1ccc(C(=O)Nc2ccc(Oc3ccnc(-c4cnn(C)c4)c3)cn2)c(=O)n1C` [Compound 2, 6-(dimethylamino)-1-methyl-N-(5-((2-(1-methyl-1H-pyrazol-4-yl)pyridin-4-yl)oxy)pyridin-2-yl)-2-oxo-1,2-dihydropyridine-3-carboxamide] yielded an IC50 of 11 nM.

The compounds below were run against Recombinant human CSF1R kinase (Homo sapiens (Human), UniProt P07333) (assay: not given). Settings: Z-LYTE Tyr 1 peptide substrate.
Recombinant human CSF1R kinase, sequence (P07333 20-972): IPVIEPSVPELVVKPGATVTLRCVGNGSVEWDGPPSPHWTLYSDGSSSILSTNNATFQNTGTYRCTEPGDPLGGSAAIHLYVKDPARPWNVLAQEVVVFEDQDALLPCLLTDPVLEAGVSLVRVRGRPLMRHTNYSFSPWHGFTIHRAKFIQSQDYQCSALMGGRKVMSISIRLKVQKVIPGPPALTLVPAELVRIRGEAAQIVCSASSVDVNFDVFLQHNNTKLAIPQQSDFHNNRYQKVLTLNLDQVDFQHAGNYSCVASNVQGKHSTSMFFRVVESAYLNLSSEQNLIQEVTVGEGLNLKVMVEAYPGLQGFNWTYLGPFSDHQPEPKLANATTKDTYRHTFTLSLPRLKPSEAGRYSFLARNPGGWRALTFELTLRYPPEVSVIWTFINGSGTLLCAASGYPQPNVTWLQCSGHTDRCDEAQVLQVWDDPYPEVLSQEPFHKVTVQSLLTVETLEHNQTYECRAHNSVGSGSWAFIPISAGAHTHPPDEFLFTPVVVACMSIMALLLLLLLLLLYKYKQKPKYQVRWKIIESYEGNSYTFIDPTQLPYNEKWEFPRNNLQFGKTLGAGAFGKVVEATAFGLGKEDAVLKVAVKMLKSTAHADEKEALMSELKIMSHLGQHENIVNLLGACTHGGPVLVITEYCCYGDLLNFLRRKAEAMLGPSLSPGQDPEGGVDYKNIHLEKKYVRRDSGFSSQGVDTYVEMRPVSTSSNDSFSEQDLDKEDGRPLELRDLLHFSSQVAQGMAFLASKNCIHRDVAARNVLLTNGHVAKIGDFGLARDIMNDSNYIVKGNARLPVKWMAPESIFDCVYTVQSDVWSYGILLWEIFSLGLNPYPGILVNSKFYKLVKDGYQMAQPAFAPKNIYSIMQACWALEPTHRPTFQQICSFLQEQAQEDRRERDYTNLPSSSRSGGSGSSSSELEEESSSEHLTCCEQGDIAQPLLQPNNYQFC
Assay type: biochemical
Work on `CC(C)n1c(N(C)C)ccc(C(=O)Nc2ccc(Oc3ccnc(-c4cnn(C)c4)c3)cn2)c1=O` [Compound 1, 6-(dimethylamino)-1-isopropyl-N-(5-((2-(1-methyl-1H-pyrazol-4-yl)pyridin-4-yl)oxy)pyridin-2-yl)-2-oxo-1,2-dihydropyridine-3-carboxamide] yielded an IC50 of 217 nM. For `Cc1cc(Oc2ccnc(-c3cnn(C)c3)c2)ccc1NC(=O)c1cccn(C(C)C)c1=O` [Compound 19], the IC50 was 274 nM. Work on `Cn1cccc(C(=O)Nc2ccc(Oc3ccnc(-n4cncn4)c3)cn2)c1=O` [Compound 29] yielded an IC50 of 173 nM. `Cc1ncc(C(=O)Nc2ccc(Oc3ccnc(-c4cncn4C)c3)cn2)c(=O)n1C` [Compound 31] showed an IC50 of 689 nM. Compound `Cc1cc(Nc2cc(Oc3ccc(NC(=O)c4cnc(C)n(C)c4=O)nc3)ccn2)ccn1` [Compound 35] has an IC50 of 113 nM. With `Cn1cccc(C(=O)Nc2ccc(Oc3ccnc(-n4cccn4)c3)cn2)c1=O` [Compound 37] the IC50 was 169 nM. For `COc1cc(Oc2ccnc(-c3cnn(C)c3)c2)ccc1NC(=O)c1cnc(C)n(C)c1=O` [Compound 53], the IC50 was 135 nM. `CC(C)n1ccnc(C(=O)Nc2ccc(Oc3ccnc(-c4cnn(C)c4)c3)cn2)c1=O` [Compound 59] was tested, and the IC50 was 121 nM. `CCN1CCN(c2cc(Oc3ccc(NC(=O)c4cccn(C(C)C)c4=O)nc3)ccn2)CC1` [Compound 98, N-(5-((2-(4-ethylpiperazin-1-yl)pyridin-4-yl)oxy)pyridin-2-yl)-1-isopropyl-2-oxo-1,2-dihydropyridine-3-carboxamide] gave an IC50 of 484 nM. `Cc1ncc(C(=O)Nc2ccc(Oc3ccnc(-c4cnn(CCN)c4)c3)cn2)c(=O)n1C` [Compound 109, N-(5-((2-(1-(2-aminoethyl)-1H-pyrazol-4-yl)pyridin-4-yl)oxy)pyridin-2-yl)-1,2-dimethyl-6-oxo-1,6-dihydropyrimidine-5-carboxamide] gave an IC50 of 177 nM. `CNCCn1cc(-c2cc(Oc3ccc(NC(=O)c4cnc(C)n(C)c4=O)nc3)ccn2)cn1` [Compound 110] gave an IC50 of 111 nM. In the case of `Cc1ncc(C(=O)Nc2ccc(Oc3ccnc(-c4nccs4)c3)cn2)c(=O)n1C` [Compound 119], the IC50 is reported as 467 nM. With `Cc1ncc(C(=O)Nc2ccc(Oc3ccnc(C4=CCCCC4)c3)cn2)c(=O)n1C` [Compound 121] the IC50 was 413 nM. `Cc1ccc(-c2cc(Oc3ccc(NC(=O)c4cnc(C)n(C)c4=O)nc3)ccn2)o1` [Compound 122] was tested, and the IC50 was 55 nM.
